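1) Cells in 96-well plates. 2) Compound, 48 h, 5 concentrations. 3) Linear interpolation between surrounding doses. 4) Unreached endpoint = highest concentration. GI50 marks 50% less growth.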 The source made the active and inactive calls. No stated cut-off is given here; in the data, active = GI50 up to about 1.1 µM and inactive = higher. Positions of bridges follow the written chain, without caps; N, C: chain ends. Non-standard residues stand in square brackets, D forms with d. Residues, ends and D or L forms follow the SMILES beside them. *: point of attachment. Cbz = O=C(OCc1ccccc1)*; Aib = CC(C)(N)C(=O)O; OBn = c1ccc(CO*)cc1; βAla = NCCC(=O)O
Key:
Experiment in all cases: DTP human tumour cell line panel, 48 h
BT-549 = system: BT-549
HL-60 = system: HL-60
A498 = system: A498
LOX IMVI = system: LOX IMVI
SK-MEL-28 = system: SK-MEL-28
NCI-H522 = system: NCI-H522
ACHN = system: ACHN
DU-145 = system: DU-145
MDA-MB-435 = system: MDA-MB-435
HCT-116 = system: HCT-116
UACC-62 = system: UACC-62
OVCAR-3 = system: OVCAR-3
NCI-H23 = system: NCI-H23
SF-295 = system: SF-295
SF-268 = system: SF-268
UACC-257 = system: UACC-257
Malme-3M = system: Malme-3M
OVCAR-4 = system: OVCAR-4
MOLT-4 = system: MOLT-4
EKVX = system: EKVX
T47D = system: T47D
CAKI-1 = system: CAKI-1
RPMI-8226 = system: RPMI-8226
OVCAR-8 = system: OVCAR-8
Hs-578T = system: Hs-578T
CCRF-CEM = system: CCRF-CEM
HCT-15 = system: HCT-15
MDA-MB-231 = system: MDA-MB-231
COLO 205 = system: COLO 205
TK-10 = system: TK-10
NCI/ADR-RES = system: NCI/ADR-RES
MDA-N = system: MDA-N
HOP-62 = system: HOP-62
SF-539 = system: SF-539
UO-31 = system: UO-31
SNB-19 = system: SNB-19
SN12C = system: SN12C
SR = system: SR
OVCAR-5 = system: OVCAR-5
786-0 = system: 786-0
MCF7 = system: MCF7
M14 = system: M14
IGROV-1 = system: IGROV-1
HCC 2998 = system: HCC 2998
HT-29 = system: HT-29
A549 = system: A549
K562 = system: K562
RXF 393 = system: RXF 393
SK-OV-3 = system: SK-OV-3
KM12 = system: KM12
NCI-H460 = system: NCI-H460
NCI-H226 = system: NCI-H226
U-251 = system: U-251
SW-620 = system: SW-620
PC-3 = system: PC-3
SK-MEL-5 = system: SK-MEL-5
HOP-92 = system: HOP-92
SNB-75 = system: SNB-75

With COc1ccc(OC)c(/C=C/c2ccnc3ccccc23)c1 the GI50 (BT-549) was 568 nM (active), the GI50 (HL-60) was 200 nM (active) and the GI50 (A498) was 452 nM (active). The GI50 (LOX IMVI) was 365 nM (active), the GI50 (SK-MEL-28) was 574 nM (active) and the GI50 (NCI-H522) was 281 nM (active). The GI50 (ACHN) was 533 nM (active), the GI50 (DU-145) was 525 nM (active) and the GI50 (MDA-MB-435) was 167 nM (active). The GI50 (HCT-116) was 377 nM (active), the GI50 (UACC-62) was 307 nM (active) and the GI50 (OVCAR-3) was 269 nM (active). The GI50 (NCI-H23) was 346 nM (active), the GI50 (SF-295) was 332 nM (active) and the GI50 (SF-268) was 647 nM (active). For the same molecule, the GI50 (UACC-257) was 513 nM (active), the GI50 (Malme-3M) was 2070 nM (inactive) and the GI50 (OVCAR-4) was 863 nM (active). For the same molecule, the GI50 (MOLT-4) was 519 nM (active), the GI50 (EKVX) was 463 nM (active) and the GI50 (T47D) was 1630 nM (inactive). The GI50 (CAKI-1) was 1280 nM (inactive), the GI50 (RPMI-8226) was 773 nM (active) and the GI50 (OVCAR-8) was 191 nM (active). The GI50 (Hs-578T) was 340 nM (active), the GI50 (CCRF-CEM) was 337 nM (active) and the GI50 (HCT-15) was 372 nM. For the same molecule, the GI50 (MDA-MB-231) was 565 nM (active), the GI50 (COLO 205) was 277 nM (active) and the GI50 (TK-10) was 1610 nM (inactive). For the same molecule, the GI50 (NCI/ADR-RES) was 255 nM (active), the GI50 (MDA-N) was 156 nM (active) and the GI50 (HOP-62) was 450 nM (active). For the same molecule, the GI50 (SF-539) was 210 nM (active), the GI50 (UO-31) was 458 nM (active) and the GI50 (SNB-19) was 631 nM (active). The GI50 (SN12C) was 619 nM (active), the GI50 (SR) was 277 nM (active) and the GI50 (OVCAR-5) was 2430 nM (inactive). The GI50 (786-0) was 482 nM (active), the GI50 (MCF7) was 851 nM (active) and the GI50 (M14) was 375 nM (active). For the same molecule, the GI50 (IGROV-1) was 822 nM (active), the GI50 (HCC 2998) was 1240 nM (inactive) and the GI50 (HT-29) was 321 nM (active). The GI50 (A549) was 735 nM (active), the GI50 (K562) was 191 nM (active) and the GI50 (RXF 393) was 377 nM (active). The GI50 (SK-OV-3) was 403 nM (active), the GI50 (KM12) was 312 nM (active) and the GI50 (NCI-H460) was 371 nM (active). For the same molecule, the GI50 (NCI-H226) was 441 nM (active), the GI50 (U-251) was 374 nM (active) and the GI50 (SW-620) was 366 nM (active). For the same molecule, the GI50 (PC-3) was 514 nM (active), the GI50 (SK-MEL-5) was 272 nM (active) and the GI50 (HOP-92) was 1070 nM (active).

With CC1(C)NC(=O)C(NC(=O)C(CC(=O)OCc2ccccc2)NC(=O)OCc2ccccc2)CCCCNC(=O)CCNC1=O (stereo not drawn) (Cbz-D(OBn)K[Aib][βAla]; lactam 2-C; configuration not given here) the GI50 (BT-549) was > 100000 nM (inactive), the GI50 (HL-60) was > 100000 nM (inactive) and the GI50 (A498) was > 100000 nM (inactive). The GI50 (LOX IMVI) was > 100000 nM (inactive), the GI50 (SK-MEL-28) was > 100000 nM (inactive) and the GI50 (NCI-H522) was > 100000 nM (inactive). The GI50 (ACHN) was > 100000 nM (inactive), the GI50 (DU-145) was > 100000 nM (inactive) and the GI50 (MDA-MB-435) was > 100000 nM (inactive). The GI50 (HCT-116) was > 100000 nM (inactive), the GI50 (UACC-62) was > 100000 nM (inactive) and the GI50 (OVCAR-3) was > 100000 nM (inactive). For the same molecule, the GI50 (NCI-H23) was > 100000 nM (inactive), the GI50 (SF-295) was > 100000 nM (inactive) and the GI50 (SF-268) was > 100000 nM (inactive). The GI50 (Malme-3M) was > 100000 nM (inactive), the GI50 (OVCAR-4) was > 100000 nM (inactive) and the GI50 (MOLT-4) was > 100000 nM (inactive). For the same molecule, the GI50 (EKVX) was > 100000 nM (inactive), the GI50 (T47D) was > 100000 nM (inactive) and the GI50 (CAKI-1) was > 100000 nM (inactive). The GI50 (RPMI-8226) was > 100000 nM (inactive), the GI50 (OVCAR-8) was > 100000 nM (inactive) and the GI50 (Hs-578T) was > 100000 nM (inactive). The GI50 (HCT-15) was over 100000 nM, the GI50 (MDA-MB-231) was > 100000 nM (inactive) and the GI50 (COLO 205) was > 100000 nM (inactive). The GI50 (TK-10) was > 100000 nM (inactive), the GI50 (NCI/ADR-RES) was > 100000 nM (inactive) and the GI50 (MDA-N) was > 100000 nM (inactive). The GI50 (HOP-62) was > 100000 nM (inactive), the GI50 (SF-539) was > 100000 nM (inactive) and the GI50 (UO-31) was > 100000 nM (inactive). The GI50 (SNB-19) was > 100000 nM (inactive), the GI50 (SN12C) was > 100000 nM (inactive) and the GI50 (SR) was > 10000 nM (inactive). For the same molecule, the GI50 (OVCAR-5) was > 100000 nM (inactive), the GI50 (786-0) was > 100000 nM (inactive) and the GI50 (MCF7) was > 100000 nM (inactive). For the same molecule, the GI50 (M14) was > 100000 nM (inactive), the GI50 (IGROV-1) was > 100000 nM (inactive) and the GI50 (HCC 2998) was > 100000 nM (inactive). The GI50 (HT-29) was > 100000 nM (inactive), the GI50 (SNB-75) was > 100000 nM (inactive) and the GI50 (A549) was > 100000 nM (inactive). For the same molecule, the GI50 (K562) was > 100000 nM (inactive), the GI50 (RXF 393) was > 100000 nM (inactive) and the GI50 (SK-OV-3) was > 100000 nM (inactive). For the same molecule, the GI50 (KM12) was > 100000 nM (inactive), the GI50 (NCI-H460) was > 100000 nM (inactive) and the GI50 (NCI-H226) was > 100000 nM (inactive). For the same molecule, the GI50 (U-251) was > 100000 nM (inactive), the GI50 (SW-620) was > 100000 nM (inactive) and the GI50 (PC-3) was > 100000 nM (inactive). For the same molecule, the GI50 (SK-MEL-5) was > 100000 nM (inactive) and the GI50 (HOP-92) was > 100000 nM (inactive).
